Molecular target: Peptidyl-prolyl cis-trans isomerase A (Homo sapiens, UniProt P62937)
Sequence (P62937 whole entry): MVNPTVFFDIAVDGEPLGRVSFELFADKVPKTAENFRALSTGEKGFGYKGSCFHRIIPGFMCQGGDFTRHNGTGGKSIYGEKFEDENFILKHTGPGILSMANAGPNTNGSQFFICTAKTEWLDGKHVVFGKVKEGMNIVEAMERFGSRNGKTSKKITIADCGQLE
Description: Inhibition of peptidyl-prolyl isomerase activity of Cyclophilin A

Row | SMILES | IC50
1 | O=C(NC(=O)c1ccccc1)NC1c2ccccc2-c2ccccc21 | Not Active
2 | O=C(NC(=O)c1c(F)cccc1OCc1ccccc1)NC1c2ccccc2-c2ccccc21 | Not Active

Continued, values first:

Row | IC50 | SMILES
3 | Not Active | O=C(NCCc1ccccc1)NC(=O)c1c(O)cccc1O
4 | Not Active | COc1cccc(F)c1C(=O)NC(=O)NC1c2ccccc2-c2ccccc21
5 | Not Active | Cc1ccccc1C(=O)NC(=O)NC1c2ccccc2-c2ccccc21

Source: ChEMBL document CHEMBL1152440, “Discovering potent small molecule inhibitors of cyclophilin A using de novo drug design approach” (J Med Chem, 2009)
